Source: patent US20250368650A1, “5-(4-FLUOROPHENYL)-2,3-DIHYDRO-1H-IMIDAZO[1,2-A]IMIDAZOLE DERIVATIVES AS ALK INHIBITORS FOR THE TREATMENT OF FIBROSIS” (CHIESI FARMACEUTICI S.P.A., priority 2022, published 2025)
Counter-ions that a name gives are not always drawn.

Target: human ALK5 (Homo sapiens (Human), UniProt P36897)
Assay: ADP-GLO Kinases assay, ALK5 enzymatic activity
Type: biochemical
Conditions: purified recombinant human ALK5 2.6 nM, TGFβ1 peptide 94.5 μM, ATP 0.83 μM, 120 min, 25° C.; pIC50 converted to pKi using the Cheng-Prusoff equation
Description: The enzymatic activity of compounds of the present invention was monitored measuring the formation of ADP using the ADP-GLO Kinases assay. Following the incubation of the purified enzyme, a substrate and ATP, the produced ADP was converted into ATP, which in turn was converted into light by Ultra-Glo Luciferase. The luminescent signal positively correlated with ADP amount and kinase activity. Briefly, the kinase reaction was performed by incubating 2.6 nM of the purified, commercially available human ALK5 (recombinant TGF β1 N-term GST-tagged, 80-end), a final concentration of TGFβ1 peptide 94.5 μM (Promega, T36-58) and ultra-pure ATP (Promega V915B). The ATP concentration was set at the Km value (concentration of substrate which permits the enzyme to achieve half maximal velocity (Vmax)) of ALK5 (0.5 μM). Compound and ALK5 kinase were mixed and incubated for 15 min. Reactions were initiated by addition of ATP at a final concentration in the assay of 0.83 μM. After an incubation of 120 min, the reaction was stopped, and ADP production detected with ADP-Glo kit according to manufacturer's indications. All reaction and incubation steps were performed at 25° C. and the assays were performed in 384-well format and validated using a selection of reference compounds tested in 11-point concentration-response curve.
Results were expressed as pIC50 (negative logarithm of IC50) and subsequently converted to pKi (negative logarithm of […]) using the Cheng-Prusoff equation. The higher the value of pKi, the greater the inhibition of ALK5 activity.

Sequence of human ALK5 (P36897 80-503 limits assumed): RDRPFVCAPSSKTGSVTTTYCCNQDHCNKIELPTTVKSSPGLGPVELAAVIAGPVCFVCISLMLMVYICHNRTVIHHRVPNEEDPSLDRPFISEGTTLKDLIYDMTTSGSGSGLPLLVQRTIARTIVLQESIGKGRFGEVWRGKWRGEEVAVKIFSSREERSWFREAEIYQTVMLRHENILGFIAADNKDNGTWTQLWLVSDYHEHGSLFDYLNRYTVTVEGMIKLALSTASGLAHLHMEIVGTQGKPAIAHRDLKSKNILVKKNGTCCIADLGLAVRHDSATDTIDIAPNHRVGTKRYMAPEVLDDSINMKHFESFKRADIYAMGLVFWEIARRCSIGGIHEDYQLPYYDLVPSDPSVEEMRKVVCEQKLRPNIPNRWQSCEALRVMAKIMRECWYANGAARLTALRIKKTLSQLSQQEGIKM

In the case of `Cc1cccc(-c2nc3n(c2-c2ccc(F)c(NC(=O)CCN4CCN(C)CC4)c2)CCN3)n1` [Example 1, N-(2-fluoro-5-(6-(6-methylpyridin-2-yl)-2,3-dihydro-1H-imidazo[1,2-a]imidazol-5-yl)phenyl)-3-(4-methylpiperazin-1-yl)propanamide], the Ki is reported as 1.26 to 7.94 nM.
For `Cc1cccc(-c2nc3n(c2-c2ccc(F)c(NC(=O)CCN4CCCCC4)c2)CCN3)n1` [Example 2, N-(2-fluoro-5-(6-(6-methylpyridin-2-yl)-2,3-dihydro-1H-imidazo[1,2-a]imidazol-5-yl)phenyl)-3-(piperidin-1-yl)propanamide], the “ALK5 pKi” value was ≥9.0.
For `Cc1cccc(-c2nc3n(c2-c2ccc(F)c(NC(=O)CCN4CCN(CCO)CC4)c2)CCN3)n1` [Example 3, N-(2-fluoro-5-(6-(6-methylpyridin-2-yl)-2,3-dihydro-1H-imidazo[1,2-a]imidazol-5-yl)phenyl)-3-(4-(2-hydroxyethyl)piperazin-1-yl)propanamide], the Ki was 1.26 to 7.94 nM.
Work on `Cc1cccc(-c2nc3n(c2-c2ccc(F)c(NC(=O)CCN4CCN(CC(F)(F)F)CC4)c2)CCN3)n1` [Example 4, N-(2-fluoro-5-(6-(6-methylpyridin-2-yl)-2,3-dihydro-1H-imidazo[1,2-a]imidazol-5-yl)phenyl)-3-(4-(2,2,2-trifluoroethyl)piperazin-1-yl)propanamide] yielded a Ki of 1.26 to 7.94 nM.
`Cc1cccc(-c2nc3n(c2-c2ccc(F)c(NC(=O)CN(C)C)c2)CCN3)n1` [Example 5, 2-(Dimethylamino)-N-(2-fluoro-5-(6-(6-methylpyridin-2-yl)-2,3-dihydro-1H-imidazo[1,2-a]imidazol-5-yl)phenyl)acetamide] showed a Ki of 10 to 31.6 nM.
With `Cc1cccc(-c2nc3n(c2-c2ccc(F)c(NC(=O)CN4CCN(C)CC4)c2)CCN3)n1` [Example 6, N-(2-fluoro-5-(6-(6-methylpyridin-2-yl)-2,3-dihydro-1H-imidazo[1,2-a]imidazol-5-yl)phenyl)-2-(4-methylpiperazin-1-yl)acetamide] the Ki was 10 to 31.6 nM.
`Cc1cccc(-c2nc3n(c2-c2ccc(F)c(NC(=O)CCCN4CCN(C)CC4)c2)CCN3)n1` [Example 7, N-(2-fluoro-5-(6-(6-methylpyridin-2-yl)-2,3-dihydro-1H-imidazo[1,2-a]imidazol-5-yl)phenyl)-4-(4-methylpiperazin-1-yl)butanamide] was tested, and the Ki was 1.26 to 7.94 nM.
For `CN1CCN(CCC(=O)Nc2cc(-c3c(-c4cc(Cl)ccc4F)nc4n3CCN4)ccc2F)CC1` [Example 8, N-(5-(6-(5-chloro-2-fluorophenyl)-2,3-dihydro-1H-imidazo[1,2-a]imidazol-5-yl)-2-fluorophenyl)-3-(4-methylpiperazin-1-yl)propanamide], the Ki was 1.26 to 7.94 nM.
With `Cc1cccc(-c2nc3n(c2-c2ccc(F)c(NC(=O)CCN(C)C)c2)CCN3)n1` [Example 9, 3-(Dimethylamino)-N-(2-fluoro-5-(6-(6-methylpyridin-2-yl)-2,3-dihydro-1H-imidazo[1,2-a]imidazol-5-yl)phenyl)propanamide] the Ki was ≤ 1 nM.
For `O=C(CCN1CCCCC1)Nc1cc(-c2c(-c3cc(Cl)ccc3F)nc3n2CCN3)ccc1F` [Example 10, N-(5-(6-(5-chloro-2-fluorophenyl)-2,3-dihydro-1H-imidazo[1,2-a]imidazol-5-yl)-2-fluorophenyl)-3-(piperidin-1-yl)propanamide], the Ki was ≤ 1 nM.
Compound `Cc1cccc(-c2nc3n(c2-c2ccc(F)c(NC(=O)CCCN4CCCCC4)c2)CCN3)n1` [Example 11, N-(2-fluoro-5-(6-(6-methylpyridin-2-yl)-2,3-dihydro-1H-imidazo[1,2-a]imidazol-5-yl)phenyl)-4-(piperidin-1-yl)butanamide] has a Ki of 1.26 to 7.94 nM.
`Cc1cccc(-c2nc3n(c2-c2ccc(F)c(NC(=O)CCC[N+]4(C)CCCCC4)c2)CCN3)n1` [Example 12, 1-(4-((2-Fluoro-5-(6-(6-methylpyridin-2-yl)-2,3-dihydro-1H-imidazo[1,2-a]imidazol-5-yl)phenyl)amino)-4-oxobutyl)-1-methylpiperidin-1-ium chloride hydrochloride] gave a Ki of 1.26 to 7.94 nM.
In the case of `Cc1cccc(-c2nc3n(c2-c2ccc(F)c(NC4CCN(C(C)C)CC4)c2)CCN3)n1` [Example 13, N-(2-fluoro-5-(6-(6-methylpyridin-2-yl)-2,3-dihydro-1H-imidazo[1,2-a]imidazol-5-yl)phenyl)-1-isopropylpiperidin-4-amine], the Ki is reported as 10 to 31.6 nM.
With `Cc1cccc(-c2nc3n(c2-c2ccc(F)c(NCC4CCN(C)CC4)c2)CCN3)n1` [Example 14, 2-Fluoro-N-((1-methylpiperidin-4-yl)methyl)-5-(6-(6-methylpyridin-2-yl)-2,3-dihydro-1H-imidazo[1,2-a]imidazol-5-yl)aniline] the Ki was 1.26 to 7.94 nM.
